Our source for the relative viability values is the supplement of paper PMC10307832.

Holding throughout (experiment): relative viability (nuclei count vs DMSO), 5 days (fraction); higher = more cells survive
Compound in test [1]: CC[C@@H](C)CNCC(=O)N1CCC2=C([C@@H]1COC3=CC=CC(=C3)C)C=CS2 [RU-SKI 43] + CC(C)C[C@H](NC(=O)[C@H](Cc1ccccc1)NC(=O)c1cnccn1)B(O)O [Bortezomib] (partner 0.002 µM)
Summed up:
(§1)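 Lung cancer cell lines were seeded in 1536-well plates and dosed by pin tool the next day, with either a single drug or a fixed anchor-drug dose combined with five library-drug doses (not always all listed) spaced in √10 steps. Five days later, one step fixed the cells and stained their nuclei (final 0.05% Triton X-100, 1% formaldehyde, 1 ug/ml Hoechst), and nuclei were counted on 4× images. Relative viability is the nuclei count in treated wells divided by the count in vehicle wells, and each value is the median of duplicate plates.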

Compound in test [2]: Cn1cc(-c2cnc3ccc4ccc(CS(=O)(=O)NCc5ccccn5)cc4c(=O)c3c2)cn1 [MK-8033] + COc1cccc2cc(-c3nc([C@H]4CC[C@H](C(=O)O)CC4)n4ncnc(N)c34)[nH]c12 [OSI-027] (partner 0.5 µM)
Summed up:
as §1

Compound in test [3]: CC[C@@H](C)CNCC(=O)N1CCC2=C([C@@H]1COC3=CC=CC(=C3)C)C=CS2 [RU-SKI 43] + C[C@]1(O)C[C@@H](c2nc(-c3ccc4ccc(-c5ccccc5)nc4c3)c3c(N)nccn32)C1 [Linsitinib] (partner 1 µM)
The method in brief:
as §1

Compound in test [4]: CCc1c2c(nc3ccc(OC(=O)N4CCC(N5CCCCC5)CC4)cc13)-c1cc3c(c(=O)n1C2)COC(=O)[C@]3(O)CC [Irinotecan] + Nc1nc2[nH]cc(CCc3ccc(C(=O)N[C@@H](CCC(=O)O)C(=O)O)cc3)c2c(=O)[nH]1 [Pemetrexed] (partner 0.2 µM)
The method in brief: as §1

PC-3 [JPC-3]: the relative viability in test [1] (first compound 0.1 µM) came to 0.848; in test [1] (first compound 0.3162 µM), 0.747; in test [1] (first compound 1 µM) it was 0.82; in test [1] (first compound 3.162 µM), 0.881; in test [1] (first compound 10 µM) it was 0.827; in test [2] (first compound 0.02 µM) it was 0.78. Also, the relative viability in test [2] (first compound 0.06325 µM) was found to be 0.647; in test [2] (first compound 0.2 µM), 0.646; in test [2] (first compound 0.6325 µM), 0.776; in test [2] (first compound 2 µM), 0.692; in test [3] (first compound 0.1 µM), 0.885; in test [3] (first compound 0.3162 µM) it was 0.956. In addition, the relative viability stood at 1.03 in test [3] (first compound 1 µM); 1.02 in test [3] (first compound 3.162 µM); 0.866 in test [3] (first compound 10 µM); 0.512 in test [4] (first compound 0.6325 µM); 1.25 in test [4] (first compound 2 µM); 0.522 in test [4] (first compound 6.325 µM). Also, in test [4] (first compound 20 µM), the relative viability turned out to be 0.463.
For PC-14, the relative viability amounted to 0.793 in test [1] (first compound 0.1 µM); 1.19 in test [1] (first compound 0.3162 µM); 0.942 in test [1] (first compound 1 µM); 0.848 in test [1] (first compound 3.162 µM); 0.66 in test [1] (first compound 10 µM); 0.835 in test [2] (first compound 0.02 µM). In addition, the relative viability in test [2] (first compound 0.06325 µM) worked out at 0.742; in test [2] (first compound 0.2 µM) it was 0.828; in test [2] (first compound 0.6325 µM), 0.773; in test [2] (first compound 2 µM) it was 0.73; in test [3] (first compound 0.1 µM) it was 0.962; in test [3] (first compound 0.3162 µM) it was 1. For the same cell line, the relative viability was 1.05 in test [3] (first compound 1 µM); 1.07 in test [3] (first compound 3.162 µM); 0.939 in test [3] (first compound 10 µM); 0.155 in test [4] (first compound 0.6325 µM); 0.175 in test [4] (first compound 2 µM); 0.136 in test [4] (first compound 6.325 µM). Besides, the relative viability in test [4] (first compound 20 µM) worked out at 0.111.
For RERF-LC-KJ, the relative viability came to 1.12 in test [1] (first compound 0.1 µM); 1.39 in test [1] (first compound 0.3162 µM); 1.17 in test [1] (first compound 1 µM); 1.2 in test [1] (first compound 3.162 µM); 1.2 in test [1] (first compound 10 µM); 0.554 in test [2] (first compound 0.02 µM). Besides, the relative viability turned out to be 0.535 in test [2] (first compound 0.06325 µM); 0.531 in test [2] (first compound 0.2 µM); 0.521 in test [2] (first compound 0.6325 µM); 0.509 in test [2] (first compound 2 µM); 0.946 in test [3] (first compound 0.1 µM); 1.04 in test [3] (first compound 0.3162 µM). Moreover, the relative viability in test [3] (first compound 1 µM) was 0.915; in test [3] (first compound 3.162 µM), 0.943; in test [3] (first compound 10 µM) it was 0.895; in test [4] (first compound 0.6325 µM) it was 0.321; in test [4] (first compound 2 µM), 0.435; in test [4] (first compound 6.325 µM) it was 0.44. The relative viability in test [4] (first compound 20 µM) came out at 0.211.
In the case of SK-LU-1, the relative viability was found to be 1.37 in test [1] (first compound 0.1 µM); 1.18 in test [1] (first compound 0.3162 µM); 1.39 in test [1] (first compound 1 µM); 1.15 in test [1] (first compound 3.162 µM); 1.24 in test [1] (first compound 10 µM); 0.347 in test [2] (first compound 0.02 µM). In addition, the relative viability in test [2] (first compound 0.06325 µM) is 0.352; in test [2] (first compound 0.2 µM) it was 0.315; in test [2] (first compound 0.6325 µM) it was 0.4; in test [2] (first compound 2 µM), 0.371; in test [3] (first compound 0.1 µM) it was 1.06; in test [3] (first compound 0.3162 µM), 1.22. Further, the relative viability came to 1.26 in test [3] (first compound 1 µM); 1.18 in test [3] (first compound 3.162 µM); 0.917 in test [3] (first compound 10 µM); 0.521 in test [4] (first compound 0.6325 µM); 0.455 in test [4] (first compound 2 µM); 0.334 in test [4] (first compound 6.325 µM). Besides, the relative viability in test [4] (first compound 20 µM) came out at 0.276.
In the case of SW 1573, the relative viability in test [1] (first compound 0.1 µM) stood at 1.13; in test [1] (first compound 0.3162 µM), 1.42; in test [1] (first compound 1 µM), 1.16; in test [1] (first compound 3.162 µM) it was 0.947; in test [1] (first compound 10 µM) it was 0.901; in test [2] (first compound 0.02 µM), 0.818. The relative viability was 0.529 in test [2] (first compound 0.06325 µM); 0.544 in test [2] (first compound 0.2 µM); 0.603 in test [2] (first compound 0.6325 µM); 0.513 in test [2] (first compound 2 µM); 0.884 in test [3] (first compound 0.1 µM); 0.824 in test [3] (first compound 0.3162 µM). Moreover, the relative viability was 0.841 in test [3] (first compound 1 µM); 0.692 in test [3] (first compound 3.162 µM); 0.688 in test [3] (first compound 10 µM); 0.553 in test [4] (first compound 2 µM); 0.176 in test [4] (first compound 6.325 µM); 0.0829 in test [4] (first compound 20 µM).
